Reference: US20240350643A1, “PROTEIN DEGRADATION AGENT” (SUZHOU KINTOR PHARMACEUTICALS, INC., priority 2021, published 2024)

Assays:
c-Myc protein = target: T1, c-Myc protein (Homo sapiens, UniProt P01106); assay: Ability of compounds to degrade c-Myc protein in HL60 cells (ELISA); type: cell-based; settings: HL-60, 1 μM compound, 24 h, read-out: HL60 cells Protein degradation rate (1 μM)
T1 construct: endogenous in cells; host or cells: HL60 cells

HL60 cells = assay: Anti-proliferation ability of compounds on HL60 cells (CTG); type: cell-based, human; settings: Homo sapiens, HL-60, 72 h, 3 days, CellTiter-Glo, read-out: HL60 cells Proliferation inhibitory activity
Outline: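 HL60 cells (20000/well) exposed to serially diluted compounds (0.1% DMSO vehicle control) for 3 days. Viability read by CellTiter-Glo luminescence; IC50 fitted from inhibition rates.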

T1 sequence (P01106 whole entry): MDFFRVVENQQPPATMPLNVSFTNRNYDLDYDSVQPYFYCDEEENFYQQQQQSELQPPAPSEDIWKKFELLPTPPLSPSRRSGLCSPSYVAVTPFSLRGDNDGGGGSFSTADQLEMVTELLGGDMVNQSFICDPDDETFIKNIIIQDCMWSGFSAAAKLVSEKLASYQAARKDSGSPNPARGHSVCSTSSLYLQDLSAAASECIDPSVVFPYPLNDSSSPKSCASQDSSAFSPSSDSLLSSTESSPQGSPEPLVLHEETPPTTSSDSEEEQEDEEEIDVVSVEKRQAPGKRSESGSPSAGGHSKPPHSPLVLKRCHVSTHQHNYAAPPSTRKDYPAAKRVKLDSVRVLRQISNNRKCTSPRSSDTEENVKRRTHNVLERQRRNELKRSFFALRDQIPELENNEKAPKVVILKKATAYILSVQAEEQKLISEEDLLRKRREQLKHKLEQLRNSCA

SMILES	inhibition at 1 µM (c-Myc protein) [%]	IC50 (HL60 cells) [nM]
CN(CCc1cccc2ccccc12)Cc1ccc(C2(NC(=O)c3ccc4c(c3)C(=O)N(C3CCC(=O)NC3=O)C4=O)CC2)cc1 (stereo not drawn) [A139]	60 to 90	22.5 ± 14.3
CN(CCn1c2ccccc2c2cccnc21)Cc1ccc(C2(NC(=O)c3ccc4c(c3)C(=O)N(C3CCC(=O)NC3=O)C4=O)CC2)cc1 (stereo not drawn) [A140]	60 to 90	11 ± 1.7
O=C1CCC(N2C(=O)c3ccc(C(=O)NCc4ccc(C5(NC(=O)Cc6cccc7ccccc67)CC5)cc4)cc3C2=O)C(=O)N1 (stereo not drawn) [A141]	60 to 90	6.5 ± 0.3
O=C1CCC(N2C(=O)c3ccc(C(=O)NCc4ccc(C5(NC(=O)Cn6c7ccccc7c7cccnc76)CC5)cc4)cc3C2=O)C(=O)N1 (stereo not drawn) [A142]	60 to 90	6.1 ± 0.9
CN(CCc1cccc2ccccc12)C1(c2ccc(CNC(=O)c3ccc4c(c3)C(=O)N(C3CCC(=O)NC3=O)C4=O)cc2)CC1 (stereo not drawn) [A143]	60 to 90	22.9 ± 3
CN(CCn1c2ccccc2c2cccnc21)C1(c2ccc(CNC(=O)c3ccc4c(c3)C(=O)N(C3CCC(=O)NC3=O)C4=O)cc2)CC1 (stereo not drawn) [A144]	60 to 90	18.4 ± 7.4
CC(C)(NC(=O)c1ccc2c(c1)C(=O)N(C1CCC(=O)NC1=O)C2=O)c1ccc(CNC(=O)Cc2cccc3ccccc23)cc1 (stereo not drawn) [A145]	60 to 90	117.7 ± 1.1
CC(C)(NC(=O)c1ccc2c(c1)C(=O)N(C1CCC(=O)NC1=O)C2=O)c1ccc(CNC(=O)Cn2c3ccccc3c3cccnc32)cc1 (stereo not drawn) [A146]	60 to 90	14.7 ± 4
CN(CCc1cccc2ccccc12)Cc1ccc(C(C)(C)NC(=O)c2ccc3c(c2)C(=O)N(C2CCC(=O)NC2=O)C3=O)cc1 (stereo not drawn) [A147]	60 to 90	16.7 ± 9.5
CN(CCn1c2ccccc2c2cccnc21)Cc1ccc(C(C)(C)NC(=O)c2ccc3c(c2)C(=O)N(C2CCC(=O)NC2=O)C3=O)cc1 (stereo not drawn) [A148]	60 to 90	12 ± 8.1
CC(C)(NC(=O)Cc1cccc2ccccc12)c1ccc(CNC(=O)c2ccc3c(c2)C(=O)N(C2CCC(=O)NC2=O)C3=O)cc1 (stereo not drawn) [A149]	60 to 90	7.6 ± 3
CC(C)(NC(=O)Cn1c2ccccc2c2cccnc21)c1ccc(CNC(=O)c2ccc3c(c2)C(=O)N(C2CCC(=O)NC2=O)C3=O)cc1 (stereo not drawn) [A150]	60 to 90	7.2 ± 1
CN(CCn1c2ccccc2c2cccnc21)C(C)(C)c1ccc(CNC(=O)c2ccc3c(c2)C(=O)N(C2CCC(=O)NC2=O)C3=O)cc1 (stereo not drawn) [A151]	60 to 90	11.3 ± 4.7
O=C(Cc1cccc2ccccc12)NCc1ccc(CNC(=O)c2ccc3c(c2)CN(C2CCC(=O)NC2=O)C3=O)cc1 (stereo not drawn) [A152]	60 to 90	0.6 ± 0.3
O=C(Cn1c2ccccc2c2cccnc21)NCc1ccc(CNC(=O)c2ccc3c(c2)CN(C2CCC(=O)NC2=O)C3=O)cc1 (stereo not drawn) [A153]	60 to 90	0.5 ± 0.3
O=C(Cc1c(F)ccc2ccccc12)NCc1ccc(CNC(=O)c2ccc3c(c2)CN(C2CCC(=O)NC2=O)C3=O)cc1 (stereo not drawn) [A154]	60 to 90	1.2 ± 0.1
O=C(Cc1cccc2ccc(F)cc12)NCc1ccc(CNC(=O)c2ccc3c(c2)CN(C2CCC(=O)NC2=O)C3=O)cc1 (stereo not drawn) [A155]	60 to 90	3 ± 0.6
CN(CCn1c2ccccc2c2cccnc21)Cc1ccc(CNC(=O)c2ccc3c(c2)CN(C2CCC(=O)NC2=O)C3=O)cc1 (stereo not drawn) [A156]	60 to 90	< 3
O=C(Cn1c2ccccc2c2cccnc21)NCc1ccc(CNC(=O)c2ccc3c(c2)CN(C2CCC(=O)NC2=O)C3=O)c(F)c1 (stereo not drawn) [A157]	60 to 90	0.5 ± 0.1
O=C(Cc1nccc2ccccc12)NCc1ccc(CNC(=O)c2ccc3c(c2)CN(C2CCC(=O)NC2=O)C3=O)c(F)c1 (stereo not drawn) [A158]	30 to 60	3.3 ± 0.3
O=C(Cc1cccc2ccccc12)NCc1ccc(CNC(=O)c2ccc3c(c2)CN(C2CCC(=O)NC2=O)C3=O)c(C(F)(F)F)c1 (stereo not drawn) [A159]	60 to 90	2.2 ± 0.8
